Data as given in ChEMBL document CHEMBL3885881, “DrugMatrix”.

Species on record: Rattus norvegicus
Assay: DrugMatrix - Regimen: Daily Repeat
Type: toxicity, organism-based, Sprague-Dawley
Set-up: regimen Daily Repeat, gender Male, age 6-8 weeks
Conditions: in vivo, po, route oral GAVAGE, vehicle .5 % CMC; for BASOPHIL / EOSINOPHIL / ERYTHROCYTE COUNT / HEMATOCRIT / HEMOGLOBIN / LEUKOCYTE COUNT / LYMPHOCYTE / MEAN CORPUSCULAR HEMOGLOBIN / MEAN CORPUSCULAR HEMOGLOBIN CONCENTRATION / MEAN CORPUSCULAR VOLUME / MONOCYTE / NEUTROPHIL / PLATELET COUNT: tissue Blood; for ALANINE AMINOTRANSFERASE / ALBUMIN / ALKALINE PHOSPHATASE / ASPARTATE AMINOTRANSFERASE / BLOOD UREA NITROGEN / CHLORIDE / CHOLESTEROL / CREATINE PHOSPHOKINASE / CREATININE / GLUCOSE / PHOSPHORUS / POTASSIUM / SODIUM / TOTAL BILIRUBIN / TOTAL PROTEIN: tissue Plasma
[1] = 0 mg/kg, 72 h, dose level Control, time 3 day
[2] = 0 mg/kg, 120 h, dose level Control, time 5 day
[3] = 8 mg/kg, 72 h, dose level Low, time 3 day
[4] = 8 mg/kg, 120 h, dose level Low, time 5 day
[5] = 24 mg/kg, 72 h, dose level High, time 3 day
[6] = 24 mg/kg, 120 h, dose level High, time 5 day

## CCc1cccc2c3c([nH]c12)C(CC)(CC(=O)O)OCC3 (stereo not drawn) [ETODOLAC]
[1]
  BASOPHIL: 1.52%
  EOSINOPHIL: 0.98%
  ERYTHROCYTE COUNT: 6.96 x10E6/uL
  HEMATOCRIT: 44.65%
  HEMOGLOBIN: 13.62 G/DL
  LEUKOCYTE COUNT: 9.83 x10E3/uL
  LYMPHOCYTE: 76.48%
  MEAN CORPUSCULAR HEMOGLOBIN: 19.57 pg
  MEAN CORPUSCULAR HEMOGLOBIN CONCENTRATION: 30.47 G/DL
  MEAN CORPUSCULAR VOLUME: 64.22 fL
  MONOCYTE: 2.13%
  NEUTROPHIL: 18.6%
  PLATELET COUNT: 1217.17 x10E3/uL
  ALANINE AMINOTRANSFERASE: 41 u/L
  ALBUMIN: 3.77 G/DL
  ALKALINE PHOSPHATASE: 411.83 u/L
  ASPARTATE AMINOTRANSFERASE: 62.83 u/L
  BLOOD UREA NITROGEN: 15.17 mg/dL
  CHLORIDE: 104.33 MEQ/L
  CHOLESTEROL: 71.17 mg/dL
  CREATINE PHOSPHOKINASE: 123.5 u/L
  CREATININE: 0.55 mg/dL
  GLUCOSE: 182.67 mg/dL
  PHOSPHORUS: 11.23 mg/dL
  POTASSIUM: 7.03 MEQ/L
  SODIUM: 148 MEQ/L
  TOTAL BILIRUBIN: 0.57 mg/dL
  TOTAL PROTEIN: 6.85 G/DL
[2]
  BASOPHIL: 1.35%
  EOSINOPHIL: 0.43%
  ERYTHROCYTE COUNT: 6.96 x10E6/uL
  HEMATOCRIT: 44.35%
  HEMOGLOBIN: 13.98 G/DL
  LEUKOCYTE COUNT: 9.45 x10E3/uL
  LYMPHOCYTE: 80.83%
  MEAN CORPUSCULAR HEMOGLOBIN: 20.1 pg
  MEAN CORPUSCULAR HEMOGLOBIN CONCENTRATION: 31.52 G/DL
  MEAN CORPUSCULAR VOLUME: 63.72 fL
  MONOCYTE: 2.37%
  NEUTROPHIL: 14.05%
  PLATELET COUNT: 1298 x10E3/uL
  ALANINE AMINOTRANSFERASE: 42.17 u/L
  ALBUMIN: 3.77 G/DL
  ALKALINE PHOSPHATASE: 419 u/L
  ASPARTATE AMINOTRANSFERASE: 66.67 u/L
  BLOOD UREA NITROGEN: 16.67 mg/dL
  CHLORIDE: 103.17 MEQ/L
  CHOLESTEROL: 66.33 mg/dL
  CREATINE PHOSPHOKINASE: 148.33 u/L
  CREATININE: 0.58 mg/dL
  GLUCOSE: 196.83 mg/dL
  PHOSPHORUS: 11.8 mg/dL
  POTASSIUM: 6.47 MEQ/L
  SODIUM: 148.33 MEQ/L
  TOTAL BILIRUBIN: 0.53 mg/dL
  TOTAL PROTEIN: 6.77 G/DL
[3]
  BASOPHIL: 2.87%
  EOSINOPHIL: 0.5%
  ERYTHROCYTE COUNT: 7.29 x10E6/uL
  HEMATOCRIT: 46.3%
  HEMOGLOBIN: 14.43 G/DL
  LEUKOCYTE COUNT: 10.83 x10E3/uL
  LYMPHOCYTE: 74.43%
  MEAN CORPUSCULAR HEMOGLOBIN: 19.83 pg
  MEAN CORPUSCULAR HEMOGLOBIN CONCENTRATION: 31.17 G/DL
  MEAN CORPUSCULAR VOLUME: 63.57 fL
  MONOCYTE: 2.53%
  NEUTROPHIL: 19.13%
  PLATELET COUNT: 1601 x10E3/uL
  ALANINE AMINOTRANSFERASE: 44.33 u/L
  ALBUMIN: 3.8 G/DL
  ALKALINE PHOSPHATASE: 358.67 u/L
  ASPARTATE AMINOTRANSFERASE: 64 u/L
  BLOOD UREA NITROGEN: 12.33 mg/dL
  CHLORIDE: 102.67 MEQ/L
  CHOLESTEROL: 62 mg/dL
  CREATINE PHOSPHOKINASE: 129.67 u/L
  CREATININE: 0.57 mg/dL
  GLUCOSE: 182.33 mg/dL
  PHOSPHORUS: 13.07 mg/dL
  POTASSIUM: 7.23 MEQ/L
  SODIUM: 148.67 MEQ/L
  TOTAL BILIRUBIN: 0.37 mg/dL
  TOTAL PROTEIN: 6.7 G/DL
[4]
  BASOPHIL: 2.2%
  EOSINOPHIL: 0.17%
  ERYTHROCYTE COUNT: 7.21 x10E6/uL
  HEMATOCRIT: 45.2%
  HEMOGLOBIN: 14.13 G/DL
  LEUKOCYTE COUNT: 12.43 x10E3/uL
  LYMPHOCYTE: 78.07%
  MEAN CORPUSCULAR HEMOGLOBIN: 19.67 pg
  MEAN CORPUSCULAR HEMOGLOBIN CONCENTRATION: 31.37 G/DL
  MEAN CORPUSCULAR VOLUME: 62.7 fL
  MONOCYTE: 3.4%
  NEUTROPHIL: 15.23%
  PLATELET COUNT: 1492.67 x10E3/uL
  ALANINE AMINOTRANSFERASE: 41.67 u/L
  ALBUMIN: 3.8 G/DL
  ALKALINE PHOSPHATASE: 376 u/L
  ASPARTATE AMINOTRANSFERASE: 62.67 u/L
  BLOOD UREA NITROGEN: 16 mg/dL
  CHLORIDE: 102 MEQ/L
  CHOLESTEROL: 67.33 mg/dL
  CREATINE PHOSPHOKINASE: 145 u/L
  CREATININE: 0.6 mg/dL
  GLUCOSE: 181.33 mg/dL
  PHOSPHORUS: 12.37 mg/dL
  POTASSIUM: 6.73 MEQ/L
  SODIUM: 149 MEQ/L
  TOTAL BILIRUBIN: 0.33 mg/dL
  TOTAL PROTEIN: 6.57 G/DL
[5]
  BASOPHIL: 1.07%
  EOSINOPHIL: 0.27%
  ERYTHROCYTE COUNT: 5.61 x10E6/uL
  HEMATOCRIT: 34.27%
  HEMOGLOBIN: 10.67 G/DL
  LEUKOCYTE COUNT: 17.3 x10E3/uL
  LYMPHOCYTE: 66.33%
  MEAN CORPUSCULAR HEMOGLOBIN: 19 pg
  MEAN CORPUSCULAR HEMOGLOBIN CONCENTRATION: 31.13 G/DL
  MEAN CORPUSCULAR VOLUME: 61.13 fL
  MONOCYTE: 3.5%
  NEUTROPHIL: 27.87%
  PLATELET COUNT: 1221.33 x10E3/uL
  ALANINE AMINOTRANSFERASE: 31 u/L
  ALBUMIN: 2.83 G/DL
  ALKALINE PHOSPHATASE: 157 u/L
  ASPARTATE AMINOTRANSFERASE: 47.67 u/L
  BLOOD UREA NITROGEN: 12.67 mg/dL
  CHLORIDE: 105 MEQ/L
  CHOLESTEROL: 58.67 mg/dL
  CREATINE PHOSPHOKINASE: 142.33 u/L
  CREATININE: 0.47 mg/dL
  GLUCOSE: 168 mg/dL
  PHOSPHORUS: 11.97 mg/dL
  POTASSIUM: 6.27 MEQ/L
  SODIUM: 148.33 MEQ/L
  TOTAL BILIRUBIN: 0.2 mg/dL
  TOTAL PROTEIN: 5 G/DL
[6]
  BASOPHIL: 1.2%
  EOSINOPHIL: 0.25%
  ERYTHROCYTE COUNT: 4.38 x10E6/uL
  HEMATOCRIT: 26.95%
  HEMOGLOBIN: 8.35 G/DL
  LEUKOCYTE COUNT: 3.5 x10E3/uL
  LYMPHOCYTE: 64.7%
  MEAN CORPUSCULAR HEMOGLOBIN: 19.1 pg
  MEAN CORPUSCULAR HEMOGLOBIN CONCENTRATION: 31 G/DL
  MEAN CORPUSCULAR VOLUME: 61.65 fL
  MONOCYTE: 3.45%
  NEUTROPHIL: 24.5%
  PLATELET COUNT: 1541 x10E3/uL
  ALANINE AMINOTRANSFERASE: 27 u/L
  ALBUMIN: 2.6 G/DL
  ALKALINE PHOSPHATASE: 256 u/L
  ASPARTATE AMINOTRANSFERASE: 105 u/L
  BLOOD UREA NITROGEN: 64 mg/dL
  CHLORIDE: 103 MEQ/L
  CHOLESTEROL: 43 mg/dL
  CREATINE PHOSPHOKINASE: 183 u/L
  CREATININE: 0.6 mg/dL
  GLUCOSE: 107 mg/dL
  PHOSPHORUS: 19.1 mg/dL
  POTASSIUM: 9.9 MEQ/L
  SODIUM: 141 MEQ/L
  TOTAL BILIRUBIN: 0.3 mg/dL
  TOTAL PROTEIN: 5.3 G/DL
